Reference: patent publication US7968526B2, “Antisense oligonucleotides directed to ribonucleotide reductase R2 and uses thereof in the treatment of cancer” (Lorus Therapeutics Inc., priority 2003, dated 2011)
“Also recorded” adds a separate entry of the source.

Assays:
Assay type in all cases: in vivo, human cells in mice
[1] = test system: Caki-1 human renal cancer cells; test: Caki-1 renal tumour xenograft, combination with 5-FU or vinblastin (1.3); settings: Caki (renal), CD-1 mouse as printed; SEQ ID NO:1 10 mg/kg i.v. every other day; 5-FU 13 mg/kg/day i.p.; vinblastin 0.6 mg/kg/week i.p.
Excerpt: All treatments were stopped at day 22. […] All treatments were stopped at day 32. […] All treatments were stopped at day 36.

[2] = test system: A498 human kidney cancer cells; test: A498 kidney tumour xenograft in SCID mice, controls and chemotherapeutics (Example 7); settings: oligonucleotides 10 mg/kg/2 days i.v., 5-FU 13 mg/kg/day×5, vinblastine 1 mg/kg/week, gemcitabine 100 mg/kg/week
Excerpt: CD-1 athymic female nude mice, BALB/c nu/nu nude mice, SCID, and SCID beige mice were purchased from Charles River Laboratories (Montreal, Canada) and experiments were typically initiated when the mice were 6-7 weeks old. […] Each experimental group typically contained 10 mice. After the size of tumour reached a mean tumour volume of 50-100 mm^3, treatment was initiated. […] Anti-tumour activity was estimated by the measurement of tumour volume with a calliper at two-three day intervals. Tumour volume was calculated by a formula L×W×H/2, where L indicates length, W indicates width and H indicates height. Within 24 hours after the last treatment, the animals were sacrificed and tumour and body weights were measured. Results of statistical analyses of the data are presented as P values in the figure legends.
Three additional treatment groups received: 5-FU (13 mg/kg/day×5), vinblastine (1 mg/kg/week) and gemcitabine (100 mg/kg/week). […] Caliper measurements at 1-week intervals were used to calculate tumour volumes. Each point in FIG. 28C represents mean tumour volume calculated from 10 animals per experimental group (with the exception of SEQ ID NO: 1 which was 8 animals). […] After 54 days the mice were sacrificed and the A498 tumours weighed. Each bar represents the mean tumour weight and standard error calculated for each treatment group.

[3] = test system: MDA-MB-231 human breast cancer cells; test: MDA-MB-231 breast tumour xenograft in CD-1 nude mice, combination with taxol or doxorubicin (1.7); settings: MDA-MB-231 (breast), CD-1; SEQ ID NO:1 10 mg/kg i.v. every other day; Taxol 10 mg/kg i.v. weekly; doxorubicin 5 mg/kg i.v. weekly
Procedure: After 52 days the mice were sacrificed and the tumours weighed. […] Mitoxantrone was administered intravenously once at the beginning of the treatments at a dose of 2 mg/kg (FIG. 4A) or once a week for four weeks at a reduced dose of 0.8 mg/kg (FIG. 4B). All treatments were stopped at day 50 (FIG. 4A) or 48 (FIG. 4B), respectively. […] Mitoxantrone was administered intravenously once at the beginning of the treatments at a dose of 2 mg/kg (FIG. 5A) or once a week for four weeks at a reduced dose of 0.8 mg/kg (FIG. 5B). All treatments were stopped at day 42 (FIG. 5A) or 38 (FIG. 5B), respectively. […] A2058 is a metastatic melanoma cell line. […] All treatments were stopped at day 24. […] Taxol was administered intravenously once a week at a dose of 10 mg/kg for three (FIG. 7A) or four weeks (FIG. 7C). Doxorubicin was administered intravenously once a week at a dose of 5 mg/kg for first three weeks (FIG. 7A) or for two weeks (FIG. 7C). All treatments were stopped at day 33 (FIG. 7A) or at day 26 (FIG. 7C), respectively. […] In FIG. 7C, antitumour activities were estimated by the inhibition of tumour volume, which was measured with calipers. Each point represents mean tumour volume calculated from 10 animals per experimental group. […] Taxol was administered intravenously once a week for first three weeks and intraperitoneally once a week for next two weeks at a dose of 10 mg/kg. Cisplatin was administered intravenously once a week for first three weeks and intraperitoneally once a week for next two weeks at a dose of 4 mg/kg. All treatments were stopped at day 40. Antitumour activities were estimated by the inhibition of tumour volume, which was measured with caliper. Each point represents mean tumour volume calculated from 9 animals per experimental group.

SMILES | Tumour weight as % of saline control [1] [%] | Effect on tumour growth (volume and weight) [2] | Tumour weight as % of saline control [3] [%]
CC[C@]1(O)C[C@@H]2CN(CCc3c([nH]c4ccccc34)[C@@](C(=O)OC)(c3cc4c(cc3OC)N(C)[C@H]3[C@@](O)(C(=O)OC)[C@H](OC(C)=O)[C@]5(CC)C=CCN6CC[C@]43[C@@H]65)C2)C1 [Vinblastine, vinblastine] | 26 | ineffective in stabilization of the tumours; also recorded: at best, a delay in the rate of tumour growth | –
COc1cccc2c1C(=O)c1c(O)c3c(c(O)c1C2=O)C[C@@](O)(C(=O)CO)C[C@@H]3O[C@H]1C[C@H](N)[C@H](O)[C@H](C)O1 [Doxorubicin] | – | – | 41
O=c1[nH]cc(F)c(=O)[nH]1 [5-FU, 5-fluorouracil] | 52 | ineffective in stabilization of the tumours; also recorded: tumours that were equal in volume and weight to tumours of saline-treated animals | –
